Eleven compounds from ChEMBL document CHEMBL1932988, “Synthesis, antimicrobial, anticancer evaluation and QSAR studies of 6-methyl-4-[1-(2-substituted-phenylamino-acetyl)-1H-indol-3-yl]-2-oxo/thioxo-1,2,3,4-tetrahydropyrimidine-5-carboxylic acid ethyl esters” (Eur J Med Chem, 2012) can be followed below.

In brackets after ≈: the same amount, converted by molar mass. Some results are limits rather than exact numbers.

The subject of one data set is MCF7. Description: cells. The settings on record: Homo sapiens, MCF7, 72 h.
The next data set relates to HCT-116. As to the kind of experiment: cells. The settings on record: Homo sapiens, HCT-116, 72 h.
Data set [1] relates to Staphylococcus aureus. Description: Antibacterial activity against Staphylococcus aureus MTCC 2901 after 24 hrs by tube dilution method. In kind it is functional.
The test system of data set [2] is Bacillus subtilis. Description: Antibacterial activity against Bacillus subtilis MTCC 2063 after 24 hrs by tube dilution method. In kind it is functional.
The test system of data set [3] is Escherichia coli. Description: Antibacterial activity against Escherichia coli MTCC 1652 after 24 hrs by tube dilution method. In kind it is functional.
The subject of data set [4] is Candida albicans. As to the kind of experiment: Antifungal activity against Candida albicans MTCC 227 after 48 hrs by tube dilution method. In kind it is functional.
Data set [5] relates to Aspergillus niger. As to the kind of experiment: Antifungal activity against Aspergillus niger MTCC 8189 after 7 days by tube dilution method. In kind it is functional.
Data set [6] deals with Staphylococcus aureus. As to the kind of experiment: Antibacterial activity against Staphylococcus aureus MTCC 2901 after 24 hrs followed by subculturing. The data set is classed as functional.
Data set [7] relates to Bacillus subtilis. As to the kind of experiment: Antibacterial activity against Bacillus subtilis MTCC 2063 after 24 hrs by tube dilution method hrs followed by subculturing. The data set is classed as functional.
Data set [8] concerns Escherichia coli. Description: Antibacterial activity against Escherichia coli MTCC 1652 after 24 hrs by tube dilution method hrs followed by subculturing. The data set is classed as functional.
For data set [9], the system named is Candida albicans. As to the kind of experiment: Antifungal activity against Candida albicans MTCC 227 after 48 hrs by tube dilution method hrs followed by subculturing. In kind it is functional.
Data set [10] deals with Aspergillus niger. As to the kind of experiment: Antifungal activity against Aspergillus niger MTCC 8189 after 7 days by tube dilution method hrs followed by subculturing. In kind it is functional.
Data set [11] concerns Staphylococcus aureus. As to the kind of experiment: Ratio of MIC to MBC for Staphylococcus aureus MTCC 2901. In kind it is functional.
Data set [12] has as its system Bacillus subtilis. Description: Ratio of MIC to MBC for Bacillus subtilis MTCC 2063. In kind it is functional.
Data set [13] concerns Escherichia coli. As to the kind of experiment: Ratio of MIC to MBC for Escherichia coli MTCC 1652. In kind it is functional.
Data set [14] relates to Candida albicans. Description: Ratio of MIC to MFC for Candida albicans MTCC 227. The data set is classed as functional.
The test system of data set [15] is Aspergillus niger. Description: Ratio of MIC to MFC for Aspergillus niger MTCC 8189. In kind it is functional.
The nature of data set [16]: Partition coefficient, log P of the compound. The data set is classed as physicochemical. To be noted: octanol/water.

Description for MCF7: Cytotoxicity against human MCF7 cells after 72 hrs by MTT assay

For `O=c1[nH]cc(F)c(=O)[nH]1` [FLUOROURACIL], the IC50 (usually the concentration that gives 50% inhibition) with MCF7 is 0.67 µg/mL (≈ 5.15 µM); in the data set on HCT-116 it was 6 µg/mL (≈ 46.1 µM).

As for `CCOC(=O)C1=C(C)NC(=O)NC1c1cn(C(=O)CNc2ccc(Cl)cc2)c2ccccc12` (configuration not stated), the “-logMIC” value with Staphylococcus aureus [1] turned out to be 1.57; in the data set on Bacillus subtilis [2], 1.27; in the data set with Escherichia coli [3], 1.27; in the data set with Candida albicans [4], 1.57; in the data set with Aspergillus niger [5] it was 1.57. In addition, the MBC against Staphylococcus aureus [6], with Bacillus subtilis [7] and against Escherichia coli [8] was >0.11 uM/ml each time. The MFC against Candida albicans [9] and against Aspergillus niger [10] was >0.11 uM/ml in each case. In addition, the Ratio in the data set with Staphylococcus aureus [11], with Bacillus subtilis [12], in the data set on Escherichia coli [13], in the data set on Candida albicans [14] and in the data set on Aspergillus niger [15] was 3 each time. Moreover, in data set [16], the logP (usually the decadic logarithm of the partition coefficient of the neutral form, usually between octanol and water) was determined as 2.04. The compound also came in with an IC50 with MCF7 of 200 µg/mL (≈ 428 µM).

For `OC(Cn1cncn1)(Cn1cncn1)c1ccc(F)cc1F` [FLUCONAZOLE], the “-logMIC” value in the data set on Candida albicans [4] and in the data set with Aspergillus niger [5] was 2.64 each time. Moreover, the MFC against Candida albicans [9] and in the data set with Aspergillus niger [10] was 0.04 uM/ml in each case.

`CCOC(=O)C1=C(C)NC(=S)NC1c1cn(C(=O)CNc2ccccc2Cl)c2ccccc12` (configuration not stated): the “-logMIC” value in the data set on Staphylococcus aureus [1] is 1.29; in the data set with Bacillus subtilis [2], 1.29; in the data set with Escherichia coli [3], 1.59; with Candida albicans [4] it was 1.59; in the data set with Aspergillus niger [5], 1.59. Besides, the MBC in the data set with Staphylococcus aureus [6], in the data set with Bacillus subtilis [7] and against Escherichia coli [8] was >0.1 uM/ml each time. Also, the MFC against Candida albicans [9] and against Aspergillus niger [10] was >0.1 uM/ml throughout. Also, the Ratio in the data set with Staphylococcus aureus [11], with Bacillus subtilis [12], in the data set with Escherichia coli [13], in the data set on Candida albicans [14] and in the data set on Aspergillus niger [15] was 3 throughout. Also, the logP in data set [16] was determined as 3.44.

Consider `CCOC(=O)C1=C(C)NC(=O)NC1c1cn(C(=O)CNc2ccc([N+](=O)[O-])cc2Cl)c2ccccc12` (configuration not stated), for which the “-logMIC” value in the data set with Staphylococcus aureus [1], with Bacillus subtilis [2], in the data set with Escherichia coli [3], in the data set on Candida albicans [4] and in the data set on Aspergillus niger [5] was 1.61 each time. Moreover, the MBC with Staphylococcus aureus [6], in the data set on Bacillus subtilis [7] and against Escherichia coli [8] was >0.1 uM/ml in each case. The MFC with Candida albicans [9] and against Aspergillus niger [10] was >0.1 uM/ml each time. Moreover, the Ratio in the data set with Staphylococcus aureus [11], in the data set with Bacillus subtilis [12], in the data set with Escherichia coli [13], with Candida albicans [14] and in the data set with Aspergillus niger [15] was 3 each time. This compound also came in with a lipophilicity (logP) in data set [16] of 1.99. The IC50 with MCF7 was 50 µg/mL (≈ 97.7 µM); with HCT-116, 5 µg/mL (≈ 9.77 µM).

As for `CCn1cc(C(=O)O)c(=O)c2cc(F)c(N3CCNCC3)cc21` [NORFLOXACIN], the “-logMIC” value in the data set on Staphylococcus aureus [1], in the data set with Bacillus subtilis [2] and in the data set on Escherichia coli [3] was 2.61 each time. Further, the MBC with Staphylococcus aureus [6], with Bacillus subtilis [7] and with Escherichia coli [8] was 0.019 uM/ml each time.

As for `CCOC(=O)C1=C(C)NC(=S)NC1c1cn(C(=O)CNc2ccc(Cl)cc2)c2ccccc12` (configuration not stated), the “-logMIC” value is reported as 1.59 in the data set on Staphylococcus aureus [1]; 1.59 with Bacillus subtilis [2]; 2.19 in the data set on Escherichia coli [3]; 1.59 in the data set on Candida albicans [4]; 1.59 in the data set on Aspergillus niger [5]. For the same compound, the MBC against Staphylococcus aureus [6] was >0.1 uM/ml; against Bacillus subtilis [7] it was >0.1 uM/ml; against Escherichia coli [8] it was 0.05 uM/ml. The MFC against Candida albicans [9] and in the data set on Aspergillus niger [10] was >0.1 uM/ml each time. For the same compound, the Ratio with Staphylococcus aureus [11], with Bacillus subtilis [12], in the data set on Escherichia coli [13], in the data set on Candida albicans [14] and with Aspergillus niger [15] was 3 throughout. The compound also returned a logP in [16] of 3.44. The IC50 in the data set on MCF7 was 80 µg/mL (≈ 166 µM).

Consider `CCOC(=O)C1=C(C)NC(=S)NC1c1cn(C(=O)CNc2ccc([N+](=O)[O-])cc2)c2ccccc12` (configuration not stated), for which the “-logMIC” value came out at 1.6 in the data set on Staphylococcus aureus [1]; 1.6 in the data set on Bacillus subtilis [2]; 2.5 with Escherichia coli [3]; 1.9 in the data set on Candida albicans [4]; 1.6 with Aspergillus niger [5]. Also, the MBC in the data set on Staphylococcus aureus [6] was >0.1 uM/ml; in the data set on Bacillus subtilis [7] it was >0.1 uM/ml; against Escherichia coli [8], 0.03 uM/ml. Besides, the MFC against Candida albicans [9] was 0.1 uM/ml; against Aspergillus niger [10], >0.1 uM/ml. Moreover, the Ratio in the data set on Staphylococcus aureus [11], in the data set with Bacillus subtilis [12], in the data set on Escherichia coli [13], in the data set with Candida albicans [14] and in the data set with Aspergillus niger [15] was 3 throughout. This compound also registered a logP in [16] of 2.88. Further, the IC50 in the data set on MCF7 is > 1000 µg/mL.

As to `CCOC(=O)C1=C(C)NC(=O)NC1c1cn(C(=O)CNc2ccc([N+](=O)[O-])cc2)c2ccccc12` (configuration not stated), the “-logMIC” value is 1.88 in the data set with Staphylococcus aureus [1]; 1.58 in the data set on Bacillus subtilis [2]; 1.88 in the data set with Escherichia coli [3]; 1.58 in the data set with Candida albicans [4]; 1.58 in the data set on Aspergillus niger [5]. The MBC is recorded as 0.1 uM/ml against Staphylococcus aureus [6], >0.1 uM/ml against Bacillus subtilis [7] and 0.1 uM/ml with Escherichia coli [8]. The MFC against Candida albicans [9] and against Aspergillus niger [10] was >0.1 uM/ml each time. The Ratio in the data set on Staphylococcus aureus [11], in the data set with Bacillus subtilis [12], in the data set on Escherichia coli [13], in the data set on Candida albicans [14] and in the data set with Aspergillus niger [15] was 3 in each case. The same compound returned a logP in data set [16] of 1.48. The IC50 in the data set with MCF7 was > 1000 µg/mL.

With `CCOC(=O)C1=C(C)NC(=O)NC1c1cn(C(=O)CNc2cccc([N+](=O)[O-])c2)c2ccccc12` (configuration not stated), the “-logMIC” value with Staphylococcus aureus [1] was found to be 1.88; in the data set with Bacillus subtilis [2], 1.58; with Escherichia coli [3] it was 1.88; in the data set with Candida albicans [4], 1.58; in the data set on Aspergillus niger [5], 1.58. For the same compound, the MBC with Staphylococcus aureus [6] was 0.1 uM/ml; in the data set on Bacillus subtilis [7] it was >0.1 uM/ml; with Escherichia coli [8], 0.1 uM/ml. In addition, the MFC against Candida albicans [9] and with Aspergillus niger [10] was >0.1 uM/ml in each case. Besides, the Ratio in the data set with Staphylococcus aureus [11], in the data set with Bacillus subtilis [12], with Escherichia coli [13], in the data set with Candida albicans [14] and with Aspergillus niger [15] was 3 each time. The compound also displayed a logP in [16] of 1.48.

As for `CCOC(=O)C1=C(C)NC(=S)NC1c1cn(C(=O)CNc2ccccc2N)c2ccccc12` (configuration not stated), the “-logMIC” value in the data set with Staphylococcus aureus [1] worked out at 1.87; with Bacillus subtilis [2], 1.57; in the data set with Escherichia coli [3], 2.17; in the data set with Candida albicans [4] it was 1.57; in the data set with Aspergillus niger [5], 1.57. Also, the MBC against Staphylococcus aureus [6] was 0.11 uM/ml; in the data set on Bacillus subtilis [7] it was >0.11 uM/ml; in the data set with Escherichia coli [8], 0.05 uM/ml. The MFC against Candida albicans [9] is on record as >0.11 uM/ml; with Aspergillus niger [10], 0.11 uM/ml. The Ratio in the data set on Staphylococcus aureus [11], with Bacillus subtilis [12], with Escherichia coli [13], with Candida albicans [14] and in the data set on Aspergillus niger [15] was 3 in each case. For the same compound, the logP in [16] turned out to be 2.14. For the same compound, the IC50 in the data set with MCF7 amounted to 100 µg/mL (≈ 216 µM).
